According to patent publication US20240139158A1, “METHODS OF TREATING PULMONARY DISEASES AND DISORDERS” (Proteostasis Therapeutics, Inc., priority 2015, published 2024):

Target: T1, CFTR, genotype Non-CF (“wild-type”/“wild-type”) (Homo sapiens, UniProt P13569)
T1 construct: Non-CF; endogenous in cells
Experiment: Activity by CFTR genotype with compound A (Example 79, Table 2)
Assay type: cell-based
Details: Relative Activity of 100% = Vehicle treated, 10 uM
Method: Table 2 indicates mutation type and activity with compounds/combination with compound A. ## indicates activity at 30 uM of 50% to <100% of the indicated relative activity treatment, #### indicates activity at 30 uM of ≥150% of the indicated relative activity treatment, + indicates activity at 10 uM of 15% to <50% of the indicated relative activity treatment, ++ indicates activity at 10 uM of 50% to <100% of the indicated relative activity treatment, +++ indicates activity at 10 uM of 100% to <150% of the indicated relative activity treatment, ++++ indicates activity at 10 uM of >150% of the indicated relative activity treatment. NB124 is used at 250 ug/ml, ivacaftor is used at 1 uM, lumacaftor is used at 3 uM, and VX-661 is used at 3 uM.

T1 sequence (P13569 whole entry): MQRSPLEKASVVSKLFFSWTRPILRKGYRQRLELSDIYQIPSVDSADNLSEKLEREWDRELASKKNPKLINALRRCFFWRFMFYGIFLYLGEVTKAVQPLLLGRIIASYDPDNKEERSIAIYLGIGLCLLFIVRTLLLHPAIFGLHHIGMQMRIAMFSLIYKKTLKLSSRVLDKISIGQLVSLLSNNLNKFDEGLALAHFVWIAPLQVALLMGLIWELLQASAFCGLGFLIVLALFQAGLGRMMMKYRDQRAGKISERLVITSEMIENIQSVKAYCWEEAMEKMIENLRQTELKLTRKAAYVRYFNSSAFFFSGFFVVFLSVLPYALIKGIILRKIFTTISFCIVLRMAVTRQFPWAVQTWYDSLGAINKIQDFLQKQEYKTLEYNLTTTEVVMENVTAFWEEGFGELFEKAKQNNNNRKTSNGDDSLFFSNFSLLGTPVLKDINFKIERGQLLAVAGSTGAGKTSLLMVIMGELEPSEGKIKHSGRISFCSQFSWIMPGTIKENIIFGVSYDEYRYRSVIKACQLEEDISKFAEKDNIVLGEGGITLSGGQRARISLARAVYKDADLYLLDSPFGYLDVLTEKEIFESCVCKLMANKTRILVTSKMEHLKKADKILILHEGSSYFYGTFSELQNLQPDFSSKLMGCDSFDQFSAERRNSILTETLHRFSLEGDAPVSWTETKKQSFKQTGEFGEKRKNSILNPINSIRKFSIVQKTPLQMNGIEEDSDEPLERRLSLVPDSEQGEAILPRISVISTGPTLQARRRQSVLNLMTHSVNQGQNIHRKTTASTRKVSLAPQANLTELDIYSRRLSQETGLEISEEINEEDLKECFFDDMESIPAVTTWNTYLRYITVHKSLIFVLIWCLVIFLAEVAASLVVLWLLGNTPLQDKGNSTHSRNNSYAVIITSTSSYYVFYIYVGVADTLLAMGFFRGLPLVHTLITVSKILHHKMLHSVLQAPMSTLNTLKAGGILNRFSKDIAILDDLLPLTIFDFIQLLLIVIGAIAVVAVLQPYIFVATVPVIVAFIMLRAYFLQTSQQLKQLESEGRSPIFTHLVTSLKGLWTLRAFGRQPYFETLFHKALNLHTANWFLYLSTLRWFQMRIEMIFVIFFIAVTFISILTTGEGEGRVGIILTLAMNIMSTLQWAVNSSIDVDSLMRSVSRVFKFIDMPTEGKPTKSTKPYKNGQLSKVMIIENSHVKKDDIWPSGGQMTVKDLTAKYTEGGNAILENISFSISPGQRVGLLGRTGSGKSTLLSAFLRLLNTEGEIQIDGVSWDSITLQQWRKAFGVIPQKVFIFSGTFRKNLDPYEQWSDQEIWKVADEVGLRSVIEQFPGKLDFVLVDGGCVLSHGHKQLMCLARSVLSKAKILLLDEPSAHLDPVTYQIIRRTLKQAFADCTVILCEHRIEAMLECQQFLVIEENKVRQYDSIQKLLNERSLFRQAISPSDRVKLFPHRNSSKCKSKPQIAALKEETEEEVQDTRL

C[C@@H](O)c1nnc(C2CC(NC(=O)c3cc(-c4ccccc4)no3)C2)o1 (stereo partly shown) [Compound A]
Stand Alone activity: +++ (activity at 10 uM of 100% to <150% of the indicated relative activity treatment)
